In US5198441A, “Derivatives of 1,2-dihydro 2-oxo quinoxalines, their preparation and their use in therapy” (Pierre Fabre Medicament, priority 1989, dated 1993):
Values after ≈ are worked out from the molar mass of the structure shown.

Key:
[1] = system: trachea contractions caused by leucotriene D4; assay: Antagonism of the effect of leucotriene D4 (contraction of isolated guinea pig trachea); conditions: Cavia porcellus, 5 min, leucotriene D4 potassium salt 0.05 μg/ml, 5 minutes contact; for inhibition at 10 µg/mL: 10 μg/ml, percentage variation in the amplitude of the contraction
Protocol: (§1) The compounds of the invention were subjected to pharmacological tests which have shown their interest as broncholytics. For this purpose, the compounds were studied for their effect against contractions caused by various products in accordance with the following protocol.
(§2) A piece of the trachea of a male tri-color guinea pig of an average weight of 400 g is cut in a spiral and mounted (about 2.5 cm) in an isolated organ cell maintained thermostatically at 37° C. and filled with oxygenated tyrode. The isometric contractions caused by the different mediators are recorded by means of a Gould Statham UC2 detector (Gould Inc. Oxnard, Calif., USA) or UF1 Palmer Bioscience detector connected to a potentiometric recorder (Linseiss, Selb, Federal Republic of Germany). At the start of the experiment, the piece of trachea was placed under a tension of 1 g and set aside for one hour.
(§3) The following mediator concentrations are used (concentrations generally causing maximum contraction): histamine dihydrochloride, 10 μg/ml; acetylcholine chloride, 1 μg/ml; potassium salt of leucotrine D4, 0.05 μg/ml; potassium chloride, 1850 μg/ml. The concentrations of agents used produce contractions which become maximum within 5 to 15 minutes, depending on the mediators, and then remain at that level. One concentration of the product studied is administered for each contraction,and the product is left in contact with the trachea for 5 minutes. The inhibition, if any, obtained at the end of this time is measured (percentage variation in the amplitude of the contraction). The trachea is then washed for 15 seconds and set aside for about 10 minutes (time necessary to return to the base tone) before causing a new contraction.
(§4) The water-insoluble products are diluted in 0.178% (v/v) (final concentration in the bath) of dimethyl sulfoxide (DMSO).
(§5) The 50% inhibitory concentrations (IC 50) are calculated using an SAS program (Statistical Analysis System) based on Bliss and Cattel (Bliss C.I. and Cattel McK. Biological Assay Ann. Rev. Physiol. 5, 479, 1943).

[2] = system: trachea contractions caused by acetylcholine; assay: Antagonism of the effect of acetylcholine (contraction of isolated guinea pig trachea); conditions: Cavia porcellus, 5 min; acetylcholine chloride 1 μg/ml; 5 minutes contact; 37° C.
Protocol: as §1, §2, §3, §4, §5

[3] = system: trachea contractions caused by potassium chloride; assay: Antagonism of the effect of potassium chloride (contraction of isolated guinea pig trachea); conditions: Cavia porcellus, 5 min; potassium chloride 1850 μg/ml; 5 minutes contact; 37° C.
Protocol: as §1, §2, §3, §4, §5

[4] = system: trachea contractions caused by histamine; assay: Antagonism of the effect of histamine (contraction of isolated guinea pig trachea); conditions: Cavia porcellus, 5 min; histamine dihydrochloride 10 μg/ml; 5 minutes contact; 37° C.
Protocol: as §1, §2, §3, §4, §5

| SMILES | inhibition at 10 µg/mL [1] | IC50 [2] | IC50 [3] | IC50 [4] | IC50 ([1]; 37° C.) |
| --- | --- | --- | --- | --- | --- |
| CC(C)=CCn1c(=O)c(CCCO)nc2ccccc21 [Compound 1, 1-prenyl 3-(3-hydroxypropyl) 1,2-dihydro 2-oxo quinoxaline] | -71% | 25.5 µg/mL (≈ 93.6 µM) | 5.6 µg/mL (≈ 20.6 µM) | 0.9 µg/mL (≈ 3.3 µM) | – |
| CC=CCn1c(=O)c(CCC(C)O)nc2ccccc21 (stereo not drawn) [Compound 19] | – | 16.5 µg/mL (≈ 60.6 µM) | – | 1.13 µg/mL (≈ 4.15 µM) | – |
| CC=CCn1c(=O)c(CCCO)nc2ccccc21 [Compound 12] | -71% | 15.5 µg/mL (≈ 60 µM) | 6.2 µg/mL (≈ 24 µM) | 0.54 µg/mL (≈ 2.09 µM) | – |
| C=CCn1c(=O)c(CCCO)nc2ccc(Cl)cc21 [Compound 5] | – | – | 17 µg/mL (≈ 61 µM) | – | – |
| O=c1c(CCCO)nc2ccccc2n1Cc1ccccc1 [Compound 17] | – | – | – | 0.43 µg/mL (≈ 1.46 µM) | – |
| CCCn1c(=O)c(CCCOC(=O)NC)nc2ccccc21 [Compound 3, 1-propyl 3-(3-methylcarbamoyloxypropyl) 1,2-dihydro 2-oxo quinoxaline] | – | 7.1 µg/mL (≈ 23.4 µM) | – | 3.3 µg/mL (≈ 10.9 µM) | – |
| Cn1c(=O)c2[nH]cnc2n(C)c1=O [theophylline, reference compound] | – | 65 µg/mL (≈ 361 µM) | 21 µg/mL (≈ 117 µM) | 11.5 µg/mL (≈ 63.8 µM) | 13.5 µg/mL |
| COc1ccc(Cn2c(=O)c(CCC(C)O)nc3ccccc32)cc1 (stereo not drawn) [Compound 24] | – | – | – | 1.3 µg/mL (≈ 3.84 µM) | – |
| CC(C)=CCn1c(=O)c(CCC(C)O)nc2ccccc21 (stereo not drawn) [Compound 20] | – | 9.7 µg/mL (≈ 33.9 µM) | – | 1.55 µg/mL (≈ 5.41 µM) | – |
| O=c1c(CCCO)nc2ccccc2n1CC1CC1 [Compound 15] | -64% | – | – | – | – |
| C=CCn1c(=O)c(CCCO)nc2ccccc21 [Compound 8] | – | – | 12.3 µg/mL (≈ 50.3 µM) | – | – |
| CCCn1c(=O)c(CCCO)nc2ccccc21 [Compound 11] | – | – | – | 3.45 µg/mL (≈ 14 µM) | – |
